Results taken from patent US20070112018A1, “Treatment of peripheral arterial occlusive disease” (priority 2005, published 2007).

Tests used:
[1] = Phase 1 Study ABI-1648-006, single oral dose pharmacokinetics; settings: for half-life / Tmax / CL/F / AUC(0-inf) / Cmax: human, plasma; for AUC0−∞/Dose Mean / Cmax/Dose Mean: normalized to mg/kg
Method: Study ABI-1648-006 was conducted to evaluate the PK of single and multiple oral doses of 2.5, 5, 12.5, and 25 mg administered to healthy male and female volunteers.

[2] = Degradation to 25-desacetyl derivative under acidic and basic conditions; format: physicochemical
Text: Rifalazil degrades to a 25-desacetyl derivative under both acidic and basic conditions. Typical of ester hydrolysis, the degradation in highly alkaline solutions is rapid while at an acidic pH, e.g., pH 1, the degradation at room temperature is slower, approximately 6% in one hour.

[3] = Placebo-controlled study of 30 mg and 100 mg in healthy volunteers, adverse events; format: in vivo, human
Method: In a placebo-controlled study of 30 mg and 100 mg in […], […] received the 30 mg dose of rifalazil. Sixty-two percent of patients (5/8) reported AEs while 33% of placebo subjects (3/9) reported AEs. The only AE of note reported in this rifalazil dose group was headache (38%, […]) compared to the placebo-treated group (11%, 1/9 subjects). […] However, this baseline value was not considered clinically significant nor were subsequent nadir values obtained on Days 3 and 7 (3.8×10^3 cells/mm^3).

[4] = 25 mg cumulative doses over one week, adverse events by regimen; format: in vivo, human
Method: Different dosing regimens of rifalazil that achieve 25-mg cumulative doses in 1 week also provide relevant clinical information on the safety of 25 mg administered as a single dose once per week.
For a cumulative dose of 25 mg, the overall incidence of AEs was somewhat lower when rifalazil was administered as 5 mg QD for 5 days, compared with a single dose of 25 mg (75%). Similarly, the overall incidence of drug-related AEs was lower when 25 mg was administered as a 5 mg for 5 days (63%), vs. 12.5 mg as 2 doses (separated by 72 hours) (70%), and as a single dose of 25 mg (75%).

[5] = Single 25-mg dose under three food conditions in healthy male adults, adverse events; format: in vivo, human
Method: In another study, a single 25-mg oral dose of rifalazil was administered to healthy male adults under one of three distinct food conditions: a high fat meal (60% fat), standard meal (30% fat), and under fasting conditions. No placebo-control was used in this study. Twelve subjects were enrolled, 10 of whom received all doses of rifalazil. Although high fat meal conditions result in higher plasma levels of rifalazil, the incidence of AEs was similar across all food conditions. A total of 83% of subjects (10/12) experienced treatment-emergent AEs, all of mild to moderate intensity. Fifty-eight percent were considered by the investigator to be drug-related. The most common reported drug-related AEs were back pain (25%) and headache (17%), and these were reported only in subjects under fed conditions. All other study medication-related AEs were reported by one subject (8%) only.

[6] = Tissue concentrations after multiple oral doses in the monkey; format: in vivo
Method: In rats and dogs, the Vdβ/F following oral administration was 40-80 L/kg. […] The highest mean Cmax observed was in the wall of the GI tract and occurred approximately 1 hour post-dose. […] A large tissue compartment of rifalazil is considered important for efficacy against Chlamydia given the intracellular nature of Chlamydia infection.

[7] = females, single oral dose 2.5 mg
[8] = females, single oral dose 12.5 mg
[9] = females, single oral dose 25 mg
[10] = males, single oral dose 12.5 mg

CO[C@H]1/C=C/O[C@@]2(C)Oc3c(C)c(O)c4c(=O)c(c5oc6cc(N7CCN(CC(C)C)CC7)cc(O)c6nc-5c4c3C2=O)NC(=O)/C(C)=C\C=C\[C@H](C)[C@H](O)[C@@H](C)[C@@H](O)[C@@H](C)[C@H](OC(C)=O)[C@@H]1C [rifalazil, 3′-hydroxy-5′-(4-isobutyl-1-piperazinyl) benzoxazinorifamycin]
Time to maximum concentration ([1]; after single dose administration (study conclusions)): 4 to 6 h
half-life ([1]; both, oral, elimination t1/2, study conclusions): 100 to 150 h
Tmax ([1]; both, po): 4.8 to 6.2 h
half-life ([1]; both, po, mean distribution t1/2, range across groups, single oral doses 2.5-25 mg, males and females): 4.5 to 8.6 h
half-life ([1]; both, po, mean elimination t1/2, range across groups, single oral doses 2.5-25 mg, males and females): 101 to 150 h
CL/F ([1]; female, po, 2.5 mg): 4.17 mL/min/kg
Tmax ([1]; female, po, 2.5 mg): 4.8 h
AUC(0-inf) ([1]; female, po, 2.5 mg, AUC0−∞ GMean (geometric mean), females, single oral dose 2.5 mg): 168 ng·h/mL
AUC(0-inf) ([1]; female, po, 2.5 mg, AUC0−∞ Mean, females, single oral dose 2.5 mg): 174 ng·h/mL
Cmax ([1]; female, po, 2.5 mg, Cmax GMean (geometric mean), females, single oral dose 2.5 mg): 7.1 ng/mL
Cmax ([1]; female, po, 2.5 mg, Cmax Mean, females, single oral dose 2.5 mg): 7.5 ng/mL
half-life ([1]; female, po, 2.5 mg, Distribution t1/2 Mean, females, single oral dose 2.5 mg): 5 h
half-life ([1]; female, po, 2.5 mg, Elimination t1/2 Mean, females, single oral dose 2.5 mg): 133 h
CL/F ([1]; female, po, 5 mg): 3.83 mL/min/kg
Tmax ([1]; female, po, 5 mg): 5 h
AUC(0-inf) ([1]; female, po, 5 mg, AUC0−∞ GMean (geometric mean), females, single oral dose 5 mg): 373 ng·h/mL
AUC(0-inf) ([1]; female, po, 5 mg, AUC0−∞ Mean, females, single oral dose 5 mg): 397 ng·h/mL
Cmax ([1]; female, po, 5 mg, Cmax GMean (geometric mean), females, single oral dose 5 mg): 13.5 ng/mL
Cmax ([1]; female, po, 5 mg, Cmax Mean, females, single oral dose 5 mg): 14.6 ng/mL
half-life ([1]; female, po, 5 mg, Distribution t1/2 Mean, females, single oral dose 5 mg): 4.5 h
half-life ([1]; female, po, 5 mg, Elimination t1/2 Mean, females, single oral dose 5 mg): 137 h
CL/F ([1]; female, po, 12.5 mg): 6.5 mL/min/kg
Tmax ([1]; female, po, 12.5 mg): 6.2 h
AUC(0-inf) ([1]; female, po, 12.5 mg, AUC0−∞ GMean (geometric mean), females, single oral dose 12.5 mg): 526 ng·h/mL
AUC(0-inf) ([1]; female, po, 12.5 mg, AUC0−∞ Mean, females, single oral dose 12.5 mg): 540 ng·h/mL
Cmax ([1]; female, po, 12.5 mg, Cmax GMean (geometric mean), females, single oral dose 12.5 mg): 19.9 ng/mL
Cmax ([1]; female, po, 12.5 mg, Cmax Mean, females, single oral dose 12.5 mg): 20.8 ng/mL
half-life ([1]; female, po, 12.5 mg, Distribution t1/2 Mean, females, single oral dose 12.5 mg): 6.1 h
half-life ([1]; female, po, 12.5 mg, Elimination t1/2 Mean, females, single oral dose 12.5 mg): 110 h
CL/F ([1]; female, po, 25 mg): 7.17 mL/min/kg
Tmax ([1]; female, po, 25 mg): 4.8 h
AUC(0-inf) ([1]; female, po, 25 mg, AUC0−∞ GMean (geometric mean), females, single oral dose 25 mg): 1020 ng·h/mL
AUC(0-inf) ([1]; female, po, 25 mg, AUC0−∞ Mean, females, single oral dose 25 mg): 1100 ng·h/mL
Cmax ([1]; female, po, 25 mg, Cmax GMean (geometric mean), females, single oral dose 25 mg): 33.3 ng/mL
Cmax ([1]; female, po, 25 mg, Cmax Mean, females, single oral dose 25 mg): 36.5 ng/mL
half-life ([1]; female, po, 25 mg, Distribution t1/2 Mean, females, single oral dose 25 mg): 7.8 h
half-life ([1]; female, po, 25 mg, Elimination t1/2 Mean, females, single oral dose 25 mg): 150 h
Vdβ/F Mean [1, 7]: 45.0 L/kg
AUC0−∞/Dose Mean [1, 7]: 4274.6
Cmax/Dose Mean [1, 7]: 183.1
Vdβ/F Mean ([1]; females, single oral dose 5 mg): 41.6 L/kg
AUC0−∞/Dose Mean ([1]; females, single oral dose 5 mg): 5124.5
Cmax/Dose Mean ([1]; females, single oral dose 5 mg): 185.1
Vdβ/F Mean [1, 8]: 61.6 L/kg
AUC0−∞/Dose Mean [1, 8]: 2759.4
Cmax/Dose Mean [1, 8]: 106.9
Vdβ/F Mean [1, 9]: 82.8 L/kg
AUC0−∞/Dose Mean [1, 9]: 2796.3
Cmax/Dose Mean [1, 9]: 91.3
CL/F ([1]; male, po, 2.5 mg): 3.5 mL/min/kg
Tmax ([1]; male, po, 2.5 mg): 5.3 h
AUC(0-inf) ([1]; male, po, 2.5 mg, AUC0−∞ GMean (geometric mean), males, single oral dose 2.5 mg): 172 ng·h/mL
AUC(0-inf) ([1]; male, po, 2.5 mg, AUC0−∞ Mean, males, single oral dose 2.5 mg): 188 ng·h/mL
Cmax ([1]; male, po, 2.5 mg, Cmax GMean (geometric mean), males, single oral dose 2.5 mg): 7.8 ng/mL
Cmax ([1]; male, po, 2.5 mg, Cmax Mean, males, single oral dose 2.5 mg): 8.4 ng/mL
half-life ([1]; male, po, 2.5 mg, Distribution t1/2 Mean, males, single oral dose 2.5 mg): 5.3 h
half-life ([1]; male, po, 2.5 mg, Elimination t1/2 Mean, males, single oral dose 2.5 mg): 101 h
CL/F ([1]; male, po, 12.5 mg): 5.5 mL/min/kg
Tmax ([1]; male, po, 12.5 mg): 5 h
AUC(0-inf) ([1]; male, po, 12.5 mg, AUC0−∞ GMean (geometric mean), males, single oral dose 12.5 mg): 528 ng·h/mL
AUC(0-inf) ([1]; male, po, 12.5 mg, AUC0−∞ Mean, males, single oral dose 12.5 mg): 552 ng·h/mL
Cmax ([1]; male, po, 12.5 mg, Cmax GMean (geometric mean), males, single oral dose 12.5 mg): 19.2 ng/mL
Cmax ([1]; male, po, 12.5 mg, Cmax Mean, males, single oral dose 12.5 mg): 19.7 ng/mL
half-life ([1]; male, po, 12.5 mg, Distribution t1/2 Mean, males, single oral dose 12.5 mg): 7.7 h
half-life ([1]; male, po, 12.5 mg, Elimination t1/2 Mean, males, single oral dose 12.5 mg): 134 h
CL/F ([1]; male, po, 25 mg): 8 mL/min/kg
Tmax ([1]; male, po, 25 mg): 5 h
AUC(0-inf) ([1]; male, po, 25 mg, AUC0−∞ GMean (geometric mean), males, single oral dose 25 mg): 656 ng·h/mL
AUC(0-inf) ([1]; male, po, 25 mg, AUC0−∞ Mean, males, single oral dose 25 mg): 683 ng·h/mL
Cmax ([1]; male, po, 25 mg, Cmax GMean (geometric mean), males, single oral dose 25 mg): 23.9 ng/mL
Cmax ([1]; male, po, 25 mg, Cmax Mean, males, single oral dose 25 mg): 24.7 ng/mL
half-life ([1]; male, po, 25 mg, Distribution t1/2 Mean, males, single oral dose 25 mg): 8.7 h
half-life ([1]; male, po, 25 mg, Elimination t1/2 Mean, males, single oral dose 25 mg): 116 h
Vdβ/F Mean ([1]; males, single oral dose 2.5 mg): 25.4 L/kg
AUC0−∞/Dose Mean ([1]; males, single oral dose 2.5 mg): 6084.0
Cmax/Dose Mean ([1]; males, single oral dose 2.5 mg): 269.6
Vdβ/F Mean [1, 10]: 62.3 L/kg
AUC0−∞/Dose Mean [1, 10]: 3299.8
Cmax/Dose Mean [1, 10]: 117.4
Vdβ/F Mean ([1]; males, single oral dose 25 mg): 74.2 L/kg
AUC0−∞/Dose Mean ([1]; males, single oral dose 25 mg): 2273.8
Cmax/Dose Mean ([1]; males, single oral dose 25 mg): 82.0
degradation in highly alkaline solutions ([2]; highly alkaline solutions): rapid
degradation to 25-desacetyl derivative ([2]; pH 1, room temperature, in one hour): approximately 6%
headache ([3]; 30 mg single oral dose (3/5 subjects)): 38%
patients reporting AEs ([3]; 30 mg single oral dose (5/8)): Sixty-two
WBC count nadir values, one subject ([3]; 30 mg single oral dose, Days 3 and 7, baseline 4.3×10^3): 3.8×10^3 cells/mm^3
incidence of flu-like symptoms ([4]; 5 mg QD for 5 days (5/15 patients)): 33%
overall incidence of drug-related AEs ([4]; 5 mg for 5 days): 63%
overall incidence of drug-related AEs ([4]; 12.5 mg as 2 doses separated by 72 hours): 70%
incidence of flu-like symptoms ([4]; 12.5 mg×2 dose regimen): 15%
incidence of flu-like symptoms ([4]; 25 mg single-dose (3/16 patients)): 19%
overall incidence of AEs ([4]; single dose of 25 mg): 75%
overall incidence of drug-related AEs ([4]; single dose of 25 mg): 75%
AEs considered by the investigator to be drug-related [5]: Fifty-eight
all other study medication-related AEs (each, one subject) [5]: 8%
subjects experiencing treatment-emergent AEs ([5]; all food conditions (10/12)): 83%
drug-related back pain ([5]; only under fed conditions): 25%
drug-related headache ([5]; only under fed conditions): 17%
concentrations in genitourinary and GI tissues and coronary arteries versus plasma [6]: exceeded concentrations in plasma
